Experimental data from US20190231783A1, “PHARMACEUTICAL FORMULATIONS” (Corvus Pharmaceuticals, Inc., priority 2018, published 2019).
“And” between values parts separate entries of the source, which are not always exact repeats. Identical values can stand only once.

Experiments:
[1] = Particle size distribution by laser diffraction (nanomilled suspensions, cast films, layered beads); assay type: physicochemical; conditions: crystalline drug particles used to prepare Nanosuspension #001-35 (Table 13A)
Description: “Particle size distribution” or “PSD” or “size distribution” refers to the size of particles present in their relative proportions in a sample, as measured by laser diffraction spectroscopy. In aspects, the particle size distribution refers to the particle size distribution of all the drug particles in the composition. The particle size distribution of a sample is measured by laser diffraction spectroscopy. Laser diffraction spectrometers are commercially available as, e.g., MASTERSIZER® 3000 from Malvern Instruments Ltd, and HORIBA® LA-950 by Horiba Instruments, Inc., Irvine Calif. For laser diffraction spectroscopy, particle size distribution is generally described by D values, such as D90. In aspects, the laser diffraction spectroscopy can be analyzed by the Fraunhofer theory. In aspects, the laser diffraction spectroscopy can be analyzed by the Mie scattering theory. In aspects, the laser diffraction spectroscopy can be analyzed by a combination of the Fraunhofer theory and the Mie scattering theory.
Particle size measurements were obtained using water as dispersing media in the fraction cell of the laser diffraction particle size analyzer and analyzed using a refractive index of 1.60+0.01i in water.
Samples at different time points were withdrawn and checked for particle size distribution by laser diffraction and appearance by optical microscopy.

[2] = Dissolution of un-milled vs nano-milled Formula (III) suspensions (sink and non-sink); assay type: physicochemical
Description: Dissolution at non-sink conditions was tested to further compare un-milled and milled Formula (III) formulations.

[3] = Assay and related substances by HPLC of nanosuspensions, after milling and on storage; assay type: physicochemical
Description: Assay and Related Substance Testing. Formulations B, D, and E were tested for assay and related substances (RS) to detect the compatibility with the excipients. […] Assay/RS was not determined at TO for this study.

[4] = Chemical characterization (assay, impurities) of drug-layered beads and capsules, initial and at CRT/ACC storage; assay type: physicochemical
Description: The amount of the smaller size drug nanoparticles increased as the level of coating increased, with the smaller hump representing the particle size distribution of the drug nanoparticle suspension and the larger hum representing the particle size distribution of the sugar spheres, which largely remained unchanged throughout the process. […] The particle size distribution of the drug nanoparticles on sugar spheres was similar to that of the particle size distribution of drug nanoparticles in the film.
The assay was low, most likely due to the size of the batch (200 grams) since the minimum amount of drug suspension had to be used, which is smaller than the optimum size for the Vector FL1 fluid bed.
The capsules were stored and monitored at controlled room temperature (CRT, 25° C./60% RH) and accelerated conditions (ACC, 40° C./75% RH), and evaluated for chemical characterization up to 3 months, as shown in Table 15C and Table 15D, respectively.

[5] = Assay and impurities of MBP dispersions, initial and on storage at 40° C./75% RH; assay type: physicochemical; conditions: initial (MBP) or API
Description: Chemical Characterization of samples.
Stability Studies. All initial samples of the MBP were kept in closed 75 mL HDPE bottles and monitored at 40° C. and 75% relative humidity (RH) for up to 3 months. The physical state and chemical stability were reported by XRPD, and assay and impurity. […] The assay and impurity results from the MBP dispersions, stored at 40° C. and 75% relative humidity closed conditions for up to 3 months, and at 40° C. and 75% relative humidity open conditions for up to 2 weeks are reported in the Tables 9D and 9E below.

[6] = Assay (% LC) and impurities by HPLC of HME extrudates and tablets, initial and on storage
Description: “Total impurities” refers to in the common pharmaceutical nomenclature as the total sum of all measured impurities and degradation products from the drug substance and is also referred to as total related substances. […] A gradient method was used with 0.1% (V/V) methanesulfonic acid in water as the first mobile phase and acetonitrile as the second. A C18 column with UV detection at 225 nm was used. Acetonitrile-water mixture was used for dilution of the samples.
Chemical stability. […] The impurity profile of the formulations was compared to the crystalline Formula (III) used in the HME extrudate (Table 2C).
Thermal degradation was closely monitored due to the high processing temperature. […] Selected major impurities in the extrudate that could be attributed to the processing condition were summarized based on the relative retention time (RRT) and shown in Table 2E.
Chemical Characterization of stability samples.

[7] = Solubility / kinetic solubility in pH 6.8 phosphate buffer; assay type: physicochemical; conditions: 37 °C, thermodynamic from solid
Description: Kinetic solubility is a supersaturated or metastable and time-dependent state as opposed to true time-independent equilibrium solubility. […] The bottle was rotated at 50 rpm up to 4 hours at 37° C. Samples were collected at 5, 10, 15, 20, 25, 30, 45, 60, 75, 90, 120, 180, and 240 minutes time points. The samples were filtered using […] PVDF filter and diluted with acetonitrile in 1:1 ratio immediately. The samples were analyzed by HPLC. The concentration of phosphate buffer had only a minor effect on the solubility of the DS or the amorphous solid dispersion (extrudate), and the surfactant made it more difficult to distinguish the enhancement of the solubility.
Solubility Studies. […] Amorphous solid dispersions with 30% drug loading of Formula III with three different stabilizing polymers were evaluated. In particular, excess sample (either Formula (III) milled extrudate or Formula (III) as a control) was added into the bottle containing 120 mL of each media to ensure saturation.
At the same time, SLS diminished the discrimination between the crystalline and amorphous forms. Thus it is advisable to avoid SLS in the dissolution media for kinetic solubility studies.

[8] = initial (formulation) or API as used, listed as API

Cc1ccc(-c2nc(N)nc3c2nnn3Cc2cccc(COC3CCOC3)n2)o1 (stereo not shown) [Formula (III)]
Particle Size Distribution D10 [1]: 73 nm | Particle Size Distribution D50 [1]: 169 nm | Particle Size Distribution D90 [1]: 714 nm | Solubility dependence on pH [2]: increases significantly below pH 3 | Time to complete dissolution ([2]; acid medium, sink condition): 45 min | Solubility of a 100 mg dose in 900 mL phosphate buffer at pH 6.8 ([2]; non-sink condition): not fully soluble | Potency (Assay %) ([3]; T = 0 (formulation) or API): 100% | % Impurity by RRT 0.80 ([3]; T = 0 or API): 0.2% | % Impurity by RRT 0.94 ([3]; T = 0 or API): 0.2% | % Impurity by RRT 10.6 ([3]; T = 0 or API): 0.2% | Total Impurity % ([3]; T = 0 or API): 0.6% | Related substances (RS) of the standard ([3]; standard, unmilled): 0.6% | Total Impurities ([4]; API): 0.8% | Total Impurities % ([4]; initial chemical characterization of the beads (Table 14C)): 0.80% | Total Impurity % [5]: 0.82% | Total Specified Impurity % [5]: 0.46% | Total Impurities ([6]; initial (Table 8E)): 0.8% | Total Impurities % [6, 8]: 0.82% and 0.818% and 0.80% | Total Specified Impurities % [6, 8]: 0.46% and 0.462% | solubility at 240 min ([7]; phosphate buffer with sodium lauryl sulphate, pH 6.8, aqueous with cosolvent or surfactant or cyclodextrin, 10 mM Phosphate buffer, pH 6.8, 0.5% SLS): 419 µg/mL | solubility at 240 min ([7]; phosphate buffer with sodium lauryl sulphate, pH 6.8, aqueous with cosolvent or surfactant or cyclodextrin, 10 mM Phosphate buffer, pH 6.8, 1.0% SLS): 593 µg/mL | solubility at 240 min ([7]; phosphate buffer with sodium lauryl sulphate, pH 6.8, aqueous with cosolvent or surfactant or cyclodextrin, 50 mM Phosphate buffer, pH 6.8, 0.5% SLS): 386 µg/mL | solubility at 240 min ([7]; phosphate buffer with sodium lauryl sulphate, pH 6.8, aqueous with cosolvent or surfactant or cyclodextrin, 50 mM Phosphate buffer, pH 6.8, 1.0% SLS): 627 µg/mL | solubility at 240 min ([7]; phosphate buffer, pH 6.8, aqueous buffer, 10 mM Phosphate buffer, pH 6.8, No Surfactant): 23 µg/mL | solubility at 240 min ([7]; phosphate buffer, pH 6.8, aqueous buffer, 50 mM Phosphate buffer, pH 6.8, No Surfactant): 19 µg/mL
